≈ marks a conversion by molar mass, not a printed value. Read-outs that look alike come from different tables or passages of the source. *1 amine or outer side, *2 acyl side, *3 side chain or, on linkers, in order; H or OH if unused. Where a SMILES comes first, the peptide text is derived from it. Side-chain parts run from the residue outwards. [ ]: non-standard residue; d: D form. The star is where a group is joined. γGlu = O=C(O)[C@H](CCC(=O)[*:2])N[*:1]; Stearoyl = CCCCCCCCCCCCCCCCCC(=O)*; Aib = CC(C)(N)C(=O)O
What was measured:
[1] = biological target: T1, human glucagon receptor (hGLUC R) (Homo sapiens, UniProt P47871); assay: cAMP response of HEK-293 cells stably expressing human glucagon receptor (HTRF); format: cell-based; details: Table 7, cAMP formation
T1 construct: expressed in transfected cells; host or cells: HEK-293
Procedure: (§1) cAMP content of cells was determined using a kit from Cisbio Corp. (cat. no. 62AM4PEC) based on HTRF (Homogenous Time Resolved Fluorescence). For preparation, cells were split into T175 culture flasks and grown overnight to near confluency in medium (DMEM/10% FBS). Medium was then removed and cells washed with PBS lacking calcium and magnesium, followed by proteinase treatment with accutase (Sigma-Aldrich cat. no. A6964). Detached cells were washed and resuspended in assay buffer (1×HBSS; 20 mM HEPES, 0.1% BSA, 2 mM IBMX) and cellular density determined. They were then diluted to 400000 cells/ml and 25 μl-aliquots dispensed into the wells of 96-well plates. For measurement, 25 μl of test compound in assay buffer was added to the wells, followed by incubation for 30 minutes at room temperature.

[2] = biological target: T2, human GIP receptor (hGIP R) (Homo sapiens, UniProt P48546); assay: cAMP response of HEK-293 cells stably expressing human GIP receptor (HTRF); format: cell-based
T2 construct: expressed in transfected cells; host or cells: HEK-293
T2 sequence (P48546 22-466): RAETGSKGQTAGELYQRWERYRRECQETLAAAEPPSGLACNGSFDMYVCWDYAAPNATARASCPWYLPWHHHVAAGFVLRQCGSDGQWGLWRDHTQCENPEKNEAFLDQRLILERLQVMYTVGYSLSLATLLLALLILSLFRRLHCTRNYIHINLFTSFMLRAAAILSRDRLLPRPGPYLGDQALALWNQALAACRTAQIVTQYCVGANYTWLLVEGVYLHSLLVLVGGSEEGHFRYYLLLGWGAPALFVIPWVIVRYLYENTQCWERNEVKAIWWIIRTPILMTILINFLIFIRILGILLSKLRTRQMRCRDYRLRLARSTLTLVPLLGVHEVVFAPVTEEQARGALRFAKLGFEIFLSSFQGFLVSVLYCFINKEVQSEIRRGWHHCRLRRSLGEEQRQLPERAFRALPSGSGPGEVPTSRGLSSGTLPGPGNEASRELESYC
Procedure: as §1

[3] = biological target: T3, human GLP-1 receptor (hGLP-1 R) (Homo sapiens, UniProt P43220); assay: cAMP response of HEK-293 cells stably expressing human GLP-1 receptor (HTRF); format: cell-based; details: Table 7, cAMP formation
T3 construct: expressed in transfected cells; host or cells: HEK-293
Procedure: as §1

[4] = Chemical stability in solution, 7 days at 25° C. (% remaining peptide); format: physicochemical; details: % remaining peptide after 7 days at 25° C., pH 7.4
Text: The chemical stability is expressed as “% remaining peptide”.

[5] = system: non-fasted female diabetic dbdb-mice; assay: Glucose lowering in non-fasted female diabetic dbdb-mice; format: in vivo; details: 3 μg/kg s.c.
Text: Female diabetic dbdb-mice of mean non-fasted glucose value of 20-22 mmol/l and a body weight of 42 g+/−0.6 g (SEM) were used. Mice were individually marked and were adapted to housing conditions for at least one week.
3-5 days prior to study start mice were assigned to groups and cages (4 mice per cage, 8 per group) according to their non-fasted glucose values to ensure even distribution of lower and higher values between groups (stratification). On the study day, mice were weighed and dosed (t=0). Immediately prior to compound administration feed was removed while water remained available, and a first blood sample at a tail incision was drawn (baseline). Further blood samples were drawn at the tail incision at 30, 60, 90, 120, 240, 360, and 480 min.
Statistical analyses are performed with Everstat Version 6.0 based on SAS by 2-way-ANOVA on repeated measures, followed by Dunnett's post-hoc test against vehicle-control. Differences are considered statistically significant at the p<0.05 level.
Female dbdb-mice, received 3 μg/kg of SEQ ID NO: 13 or phosphate buffered saline (vehicle control) subcutaneously, at time 0 min.

[6] = Solubility testing in buffer systems (HPLC-UV); format: physicochemical; details: buffer system, target concentration 1.0 mg/mL
[7] = biological target: T4, human GIP receptor (human) (UniProt P48546); assay: cell-based or functional assay
T4 sequence (looked up): T2 sequence (P48546 22-466)

[8] = biological target: human GLP-1 receptor (human) (UniProt P43220); assay: cell-based or functional assay
Chain of human GLP-1 receptor (human) (P43220 24-463): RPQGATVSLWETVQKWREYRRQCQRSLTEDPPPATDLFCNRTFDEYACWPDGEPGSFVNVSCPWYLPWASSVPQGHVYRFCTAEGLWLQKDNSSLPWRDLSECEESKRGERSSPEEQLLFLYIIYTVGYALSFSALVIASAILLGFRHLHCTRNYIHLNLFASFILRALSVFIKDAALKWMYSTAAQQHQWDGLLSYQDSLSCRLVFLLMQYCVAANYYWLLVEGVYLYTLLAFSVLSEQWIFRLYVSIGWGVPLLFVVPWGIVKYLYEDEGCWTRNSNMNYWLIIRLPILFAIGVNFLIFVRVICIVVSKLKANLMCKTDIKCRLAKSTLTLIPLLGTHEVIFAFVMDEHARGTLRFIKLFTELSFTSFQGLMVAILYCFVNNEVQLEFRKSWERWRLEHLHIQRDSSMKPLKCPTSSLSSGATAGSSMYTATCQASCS

T1 sequence (P47871 26-477): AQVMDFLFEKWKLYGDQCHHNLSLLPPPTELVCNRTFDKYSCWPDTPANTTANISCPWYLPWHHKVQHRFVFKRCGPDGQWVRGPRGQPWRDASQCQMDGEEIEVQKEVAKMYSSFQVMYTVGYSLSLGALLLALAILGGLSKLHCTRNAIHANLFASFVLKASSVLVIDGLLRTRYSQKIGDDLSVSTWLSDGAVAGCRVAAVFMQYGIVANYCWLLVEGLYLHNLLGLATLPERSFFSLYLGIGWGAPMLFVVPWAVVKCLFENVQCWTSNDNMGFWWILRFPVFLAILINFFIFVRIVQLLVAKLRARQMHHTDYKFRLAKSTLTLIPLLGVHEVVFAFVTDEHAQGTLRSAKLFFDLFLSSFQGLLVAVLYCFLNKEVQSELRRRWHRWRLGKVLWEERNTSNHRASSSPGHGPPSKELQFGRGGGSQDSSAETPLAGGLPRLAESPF
T3 sequence (P43220 24-463): as the sequence (P43220 24-463) above

`CCCCCCCCCCCCCCCCCC(=O)N[C@@H](CCC(=O)NCCCC[C@H](NC(=O)[C@H](CCC(N)=O)NC(=O)[C@@H](NC(=O)[C@H](CO)NC(=O)[C@H](CC(C)C)NC(=O)[C@H](CC(=O)O)NC(=O)[C@H](CO)NC(=O)[C@@H](NC(=O)[C@H](Cc1ccccc1)NC(=O)[C@@H](NC(=O)CNC(=O)[C@H](CCC(=O)O)NC(=O)C(C)(C)NC(=O)[C@@H](N)Cc1ccc(O)cc1)[C@@H](C)O)[C@@H](C)O)[C@@H](C)CC)C(=O)N[C@@H](CCC(=O)O)C(=O)N[C@@H](CCC(=O)O)C(=O)N[C@@H](CCC(=O)O)C(=O)N[C@@H](C)C(=O)N[C@H](C(=O)N[C@@H](CCCNC(=N)N)C(=O)N[C@@H](CC(C)C)C(=O)N[C@@H](Cc1ccccc1)C(=O)N[C@H](C(=O)N[C@@H](CCC(=O)O)C(=O)N[C@@H](Cc1c[nH]c2ccccc12)C(=O)N[C@@H](CC(C)C)C(=O)N[C@@H](CCCCN)C(=O)NC(C)(C)C(=O)NCC(=O)NCC(=O)N1CCC[C@H]1C(=O)N[C@@H](CO)C(=O)N[C@@H](CO)C(=O)NCC(=O)N[C@@H](C)C(=O)N1CCC[C@H]1C(=O)N1CCC[C@H]1C(=O)N1CCC[C@H]1C(=O)N[C@@H](CO)C(N)=O)[C@@H](C)CC)C(C)C)C(=O)O` [SEQ ID NO: 9, Y-Aib-E-G-T-F-T-S-D-L-S-I-Q-K(γE-x70)-E-E-E-A-V-R-L-F-I-E-W-L-K-Aib-G-G-P-S-S-G-A-P-P-P-S-NH2] showed an EC50 ([1]; EC50 hGLUC R) of 164 nM, an EC50 [2] of 0.0146 nM and an EC50 ([3]; EC50 hGLP-1 R) of 0.0267 nM.

With `CCCCCCCCCCCCCCCCCC(=O)N[C@@H](CCC(=O)NCCCC[C@H](NC(=O)[C@H](CCC(N)=O)NC(=O)[C@@H](NC(=O)[C@H](CO)NC(=O)[C@H](CC(C)C)NC(=O)[C@H](CC(=O)O)NC(=O)[C@H](CO)NC(=O)[C@@H](NC(=O)[C@H](Cc1ccccc1)NC(=O)[C@@H](NC(=O)CNC(=O)[C@H](CCC(=O)O)NC(=O)C(C)(C)NC(=O)[C@@H](N)Cc1ccc(O)cc1)[C@@H](C)O)[C@@H](C)O)[C@@H](C)CC)C(=O)N[C@@H](CCC(=O)O)C(=O)N[C@@H](CCCCN)C(=O)N[C@@H](CCC(=O)O)C(=O)N[C@@H](C)C(=O)N[C@H](C(=O)N[C@@H](CCCNC(=N)N)C(=O)N[C@@H](CC(C)C)C(=O)N[C@@H](Cc1ccccc1)C(=O)N[C@H](C(=O)N[C@@H](CCC(=O)O)C(=O)N[C@@H](Cc1c[nH]c2ccccc12)C(=O)N[C@@H](CC(C)C)C(=O)N[C@@H](CCCCN)C(=O)N[C@@H](C)C(=O)NCC(=O)NCC(=O)N1CCC[C@H]1C(=O)N[C@@H](CO)C(=O)N[C@@H](CO)C(=O)NCC(=O)N[C@@H](C)C(=O)N1CCC[C@H]1C(=O)N1CCC[C@H]1C(=O)N1CCC[C@H]1C(=O)N[C@@H](CO)C(N)=O)[C@@H](C)CC)C(C)C)C(=O)O` [SEQ ID NO: 13, Y-Aib-E-G-T-F-T-S-D-L-S-I-Q-K(γE-x70)-EKEAVRLFIEWLKAGGPSSGAPPPS-NH2] (H-Y[Aib]EGTFTSDLSIQK([γGlu-Stearoyl])EKEAVRLFIEWLKAGGPSSGAPPPS-NH2) the “Stability (pH 7.4)” value [4] was 84.0%, the EC50 ([1]; read-out: EC50 hGLUC R) was 200 nM and the “maximal effect, glucose reduction” value ([5]; at 240 min, kept to 480 min, baseline 20-22 mmol/l) was ~12 mmol/L. The “reduction of glucose compared to vehicle control” value ([5]; from t=90 min until end of observation, p<0.05) was “statistical significant reduction of glucose”, the solubility at 2 h ([6]; pH 4.5, read-out: Solubility (pH 4.5)) was 688 µg/mL (≈ 150 µM) and the solubility at 2 h ([6]; pH 7.4, read-out: Solubility (pH 7.4)) was 824 µg/mL (≈ 180 µM). For the same molecule, the EC50 ([2]; Table 7, cAMP formation, read-out: EC50 hGIP R) was 0.0168 nM and the EC50 ([3]; read-out: EC50 hGLP-1 R) was 0.0212 nM.

Tyr(1)Ile(12)-exendin-4 (peptide) gave an EC50 hGIP R [pM] (formed cAMP) [7] of 93.9 pM and an EC50 hGLP-1 R [pM] (formed cAMP) [8] of 1.3 pM.

From patent US20140206608A1 (priority 2012, published 2014)
